Results from publication PMC7916972, “Therapeutic Targeting of Fumaryl Acetoacetate Hydrolase in Hereditary Tyrosinemia Type I” (International Journal of Molecular Sciences, 2021).

What was measured:
[1] = target: T1, Fumarylacetoacetate hydrolase (WT FAH) (Homo sapiens, UniProt P16930); assay: STD NMR titration; methyl-TROSY M140 splitting; assay type: binding
T1 sequence (P16930 2-419): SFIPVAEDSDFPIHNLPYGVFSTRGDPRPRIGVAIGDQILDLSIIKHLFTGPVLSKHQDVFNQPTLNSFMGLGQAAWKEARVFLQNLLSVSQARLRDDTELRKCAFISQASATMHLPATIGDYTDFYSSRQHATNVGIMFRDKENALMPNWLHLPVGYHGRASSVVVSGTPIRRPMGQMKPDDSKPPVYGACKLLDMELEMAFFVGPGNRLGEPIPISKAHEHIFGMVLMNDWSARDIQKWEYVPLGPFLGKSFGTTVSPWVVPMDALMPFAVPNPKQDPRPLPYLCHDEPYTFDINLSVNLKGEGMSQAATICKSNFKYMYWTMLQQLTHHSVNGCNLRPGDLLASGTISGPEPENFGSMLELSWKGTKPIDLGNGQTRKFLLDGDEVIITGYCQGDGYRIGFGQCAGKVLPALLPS

[2] = target: T1, Fumarylacetoacetate hydrolase (WT FAH); assay: STD NMR titration; methyl-TROSY M140 shift; assay type: binding

Compound | Kd [1] | Kd [2]
C#Cc1ccncc1 [G1.30.B10] | 235 µM | 
C(#Cc1ccncc1)c1ccncc1 [G2.HT1.1] |  | 20 µM
Cc1ccnc(NC(=O)c2ccc(C)c(N)c2)c1 [G2.HT1.4] |  | 21 µM
